According to patent EP1977645A1, “Insecticidal derivates of substituted phenylalkylamines” (priority 2007, dated 2008):

Assay: log P determination (acidic)
Assay type: physicochemical

With `CNC(=S)N1CCO/C1=N\[C@@H](C)c1ccccc1F` [compound 3, (2Z)-2-{[(1S)-1-(2-fluorophenyl)ethyl]imino}-N-methyl-1,3-oxazolidine-3-carbothioamide] the logP was 3.18.
